Assay results taken from ChEMBL document CHEMBL1128244, “Synthesis, structure-activity relationships, and pharmacological evaluation of pyrrolo[3,2,1-ij]quinoline derivatives: potent histamine and platelet activating factor antagonism and 5-lipoxygenase inhibitory properties. Potential therapeutic application in asthma” (J Med Chem, 1995).
Calls of active or inactive are those of the source. The rule behind the calls is not given here.

How the values were obtained:
Cavia porcellus [1] = species: Cavia porcellus; assay: Ability to inhibit histamine-induced contractions of isolated guinea pig ileum; format: functional
Oryctolagus cuniculus = species: Oryctolagus cuniculus; assay: Test against PAF-induced aggregation of rabbit platelets in vitro; format: functional
[2] = molecular target: T1, Polyunsaturated fatty acid 5-lipoxygenase (Homo sapiens) (UniProt P09917); assay: (§1) Inhibitory activity uM; conditions: Cavia porcellus; concentration not given here
T1 sequence (whole entry): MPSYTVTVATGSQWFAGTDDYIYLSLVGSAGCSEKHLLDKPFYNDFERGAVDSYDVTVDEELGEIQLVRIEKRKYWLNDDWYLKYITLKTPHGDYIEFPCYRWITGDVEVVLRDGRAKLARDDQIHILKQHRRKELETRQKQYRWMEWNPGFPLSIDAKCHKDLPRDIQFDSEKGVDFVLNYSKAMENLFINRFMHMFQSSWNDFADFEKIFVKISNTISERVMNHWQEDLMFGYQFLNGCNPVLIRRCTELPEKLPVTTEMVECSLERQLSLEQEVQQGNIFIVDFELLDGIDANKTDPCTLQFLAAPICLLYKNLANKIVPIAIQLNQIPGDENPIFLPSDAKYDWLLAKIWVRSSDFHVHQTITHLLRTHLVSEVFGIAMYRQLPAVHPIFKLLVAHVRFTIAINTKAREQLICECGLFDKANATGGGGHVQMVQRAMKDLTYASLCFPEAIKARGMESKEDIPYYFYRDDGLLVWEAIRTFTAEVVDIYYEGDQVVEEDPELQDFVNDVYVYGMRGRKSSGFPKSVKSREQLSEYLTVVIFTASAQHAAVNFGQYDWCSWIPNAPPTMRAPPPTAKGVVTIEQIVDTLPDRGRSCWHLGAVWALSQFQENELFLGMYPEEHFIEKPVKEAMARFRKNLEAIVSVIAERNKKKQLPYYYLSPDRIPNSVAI

Rattus norvegicus [3] = species: Rattus norvegicus; assay: Inhibition of cutaneous histamine reaction in rats.; format: functional
Cavia porcellus [4] = species: Cavia porcellus; assay: Ability to inhibit histamine-induced contractions of isolated guinea pig ileum at 10e-5 M; format: functional
Rattus norvegicus [5] = assay: Antiallergic activity in the rat PCA assay following oral administration 1 hour before antigen challenge. Five animals were used in this experiment.; format: functional
Cavia porcellus [6] = species: Cavia porcellus; assay: Ability to inhibit histamine-induced contractions of isolated guinea pig ileum at 10e-6 M; Not active; format: functional
Cavia porcellus [7] = assay: Ability to inhibit histamine phase of antigen-induced bronchoconstriction in vivo in pulmonary function assays in which Guinea pigs were dosed orally 5 hours prior to test at 10 uM/kg; Not active; format: functional, organism-based
Cavia porcellus [8] = assay: Ability to inhibit histamine phase of platelet activating factor (PAF)-induced bronchoconstriction in vivo in pulmonary function assays in which Guinea pigs were dosed orally 5 hours prior to test; format: functional; conditions: po
[9] = molecular target: T1, Polyunsaturated fatty acid 5-lipoxygenase (Homo sapiens); assay: Inhibitory activity against partially-purified Guinea pig PMN 5-lipoxygenase at 10 uM; conditions: Cavia porcellus, target entry is the homologue from another species
[10] = molecular target: T1, Polyunsaturated fatty acid 5-lipoxygenase (Homo sapiens); assay: as §1; format: functional; conditions: Cavia porcellus; concentration not given here

Row | SMILES | IC50 (Cavia porcellus [1]) [nM] | IC50 (Oryctolagus cuniculus) [nM] | ED50 (Rattus norvegicus [3]) [µmol/kg] | other results
1 | Cc1c(CCCN2CCN(c3ccc(F)cc3)CC2)c2cccc3c2n1CCC3 | 1900 | > 100000 |  | 
2 | Cc1ccnc(N2CCN(CCc3c(C)n4c5c(cccc35)CCC4c3ccccc3)CC2)c1 (stereo unspecified) | 280 | 2200 | 2.9 | inhibition [2]: 17%
3 | Cc1cccc(N2CCN(CCc3c(C)n4c5c(cccc35)CCC4)CC2)n1 | 350 | 47000 |  | 
4 | Cc1c(CCN2CCN(c3ccc(F)c(Cl)c3)CC2)c2cccc3c2n1CCC3 | 510 | > 100000 |  | 
5 | COc1ccc(-c2c(CCN3CCN(c4cc(C)ccn4)CC3)c3cccc4c3n2CCC4)cc1 |  | 600 |  | inhibition at 10 µM (Cavia porcellus [4]): 15%
6 | Cc1ccnc(N2CCN(C(=O)CCc3c(C)n4c5c(cccc35)CCC4)CC2)c1 | 1400 | 20000 |  | 
7 | CC(=O)c1cc2c3c(c1)c(CCN1CCN(c4cc(C)ccn4)CC1)c(C)n3CCC2 | 19 | 7500 | 2 | inhibition [2]: 48%
8 | Cc1ccnc(N2CCN(CCc3c(C)n4c5c(cccc35)CCC4)CC2)c1 | 32 | 2600 | 4 | inhibition [2]: 0%
9 | CCCCC1CCc2cccc3c(CCN4CCN(c5cc(C)ccn5)CC4)c(C)n1c23 (stereo unspecified) | 980 | 4800 | 2.1 | inhibition [2]: 29%
10 | Cc1ccnc(N2CCN(CCc3c(C)n4c5c(cc(C)cc35)CCC4)CC2)c1 | 70 | 9100 |  | 
11 | Cc1ccnc(N2CCN(CCc3c(C)n4c5c(cc(C(=O)c6ccccc6)cc35)CCC4)CC2)c1 | 290 | 800 |  | 
12 | Cc1ccnc(N2CCN(CCc3c(C)n4c5c(cc(C(=O)C6CCCCC6)cc35)CCC4)CC2)c1 | 250 | 2000 | 2.9 | inhibition [2]: 68%
13 | Cc1ccnc(N2CCN(CCc3c(-c4ccc(Cl)cc4)n4c5c(cccc35)CCC4)CC2)c1 |  | 3300 |  | inhibition at 10 µM (Cavia porcellus [4]): 6%
14 | CCCCCCCC1CCc2cccc3c(CCN4CCN(c5cc(C)ccn5)CC4)c(C)n1c23 (stereo unspecified) |  |  |  | inhibition at 10 µM (Cavia porcellus [4]): 50%
15 | CN1CCCC(n2nc(Cc3ccc(Cl)cc3)c3ccccc3c2=O)CC1 (stereo unspecified) [AZELASTINE] | 20 | > 100000 | 3.3 | ED50 (Rattus norvegicus [5]): 7 µmol/kg
16 | Cc1c(CCN2CCC(c3ccccc3)CC2)c2cccc3c2n1CCC3 | 450 | 75000 |  | 
17 | Cc1ccc(-c2c(CCN3CCN(c4cc(C)ccn4)CC3)c3cccc4c3n2CCC4)cc1 |  | 2000 |  | IC50 (Cavia porcellus [4]): 20000 nM
18 | Cc1ccnc(N2CCN(CCc3c(-c4ccc(F)cc4)n4c5c(cccc35)CCC4)CC2)c1 |  | 2000 |  | inhibition at 10 µM (Cavia porcellus [4]): 3%
19 | O=C(c1ccccc1)c1cccc(NC(=O)c2ccn3c2CS[C@@H]3c2cccnc2)c1 [TULOPAFANT] |  |  |  | IC50 (Cavia porcellus [6]): Not Active; ED50 (Cavia porcellus [7]): inactive; ED50 (Cavia porcellus [8]): 5.5 µmol/kg
20 | Cc1ccnc(N2CCN(CCc3c(C)n4c5c(cc(C(=O)C(C)C)cc35)CCC4)CC2)c1 | 37 | 1900 | 2.9 | inhibition [9]: 36%
21 | CCCCCCC(=O)c1cc2c3c(c1)c(CCN1CCN(c4cc(C)ccn4)CC1)c(C)n3CCC2 | 1200 | 2400 |  | 
22 | Cc1c(CCN2CCC(C(=O)c3ccc(F)cc3)CC2)c2cccc3c2n1CCC3 | 490 | > 100000 |  | 
23 | Cc1ccnc(N2CCN(CCc3cn4c5c(cccc35)CCC4)CC2)c1 | 63 | 31000 |  | 
24 | COc1ccccc1N1CCN(CCc2c(C)n3c4c(cccc24)CCC3)CC1 | 250 | 82000 |  | 
25 | Cc1ccnc(N2CCN(CCc3c(-c4ccc(O)cc4)n4c5c(cccc35)CCC4)CC2)c1 |  | 2000 |  | inhibition at 10 µM (Cavia porcellus [4]): 14%
26 | Cc1c(CCN2CCN(c3ccc(F)cc3)CC2)c2cccc3c2n1CCC3 | 76 | > 100000 |  | 
27 | COc1ccc(CN(CCN(C)C)c2ccccn2)cc1 [PYRILAMINE] | 17 | > 100000 |  | 
28 | Cc1ccnc(N2CCN(CCc3c(C)n4c5c(cccc35)CCC4C)CC2)c1 (stereo unspecified) | 33 | 6900 | 2.6 | inhibition [2]: 19%
29 | Cc1ccnc(N2CCN(CCc3c(C)n4c5c(cc(N)cc35)CCC4)CC2)c1 | 80 | 84000 | 2.5 | inhibition [10]: 64%
